Measurements from PubChem BioAssay AID743151 (Broad Institute, 2013).
Active and inactive are the calls of the source.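 Rule for the calls: active = IC50 under 100 nM in each of the cell lines carrying a mutated TP53 gene; inactive = the rest.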

Legend:
Assay in all cases: cell killing across TP53-mutant lines, dose response, HeLa, COLO741, H2122, CellTiter-Glo, dry powder (AID 743151)
[1] = test system: H2122 TP53-mutant viability, CellTiter-Glo, 48 h; settings: measured here: H2122 viability IC50
[2] = test system: HeLa TP53-mutant viability, CellTiter-Glo, 48 h
[3] = test system: COLO741 TP53-mutant viability, CellTiter-Glo, 48 h; settings: measured here: COLO741 viability IC50

Structure (SMILES)	IC50 [1]	IC50 [2]	IC50 [3]
C[C@H]1CC(=O)NN=C1c1ccc(N2CCOCC2)c(F)c1	> 10000 nM	> 10000 nM (inactive)	> 10000 nM
CCN1N=C(c2ccc(N(CC)CC)cc2)[C@H](C)CC1=O	> 10000 nM	> 10000 nM (inactive)	> 10000 nM
CC(=O)Nc1ccc(C2=NNC(=O)C[C@H]2C)cc1	12.7 nM	4.93 nM	7.65 nM
CCN(CC)c1ccc(C2=NNC(=O)CC2C)cc1[N+](=O)[O-] (stereo unspecified)	13.4 nM	6.65 nM	12 nM
C[C@@H]1CC(=O)NN=C1c1ccc(C2CCCCC2)cc1	28.7 nM	7.27 nM	11.3 nM
C[C@@H]1CC(=O)NN=C1c1ccc(Cl)cc1	79.9 nM	32.7 nM	42.6 nM
C[C@@H]1CC(=O)NN=C1c1ccc(N2CCOCC2)c(F)c1	3.17 nM	1.59 nM	2.88 nM
COc1cc2c(cc1OC)-c1cc(=Nc3c(C)cc(C)cc3C)n(C)c(=O)n1CC2	> 10000 nM	> 10000 nM (inactive)	> 10000 nM
O=C1CN2Cc3c(ccc(Cl)c3Cl)N=C2N1	17.1 nM	7.65 nM	12 nM
C[C@@H]1CC(=O)NN=C1c1ccc(F)c(F)c1	46.2 nM	22.4 nM	33.3 nM
C[C@@H]1CC(=O)NN=C1c1ccc(-c2cncnc2)cc1	36.5 nM	12.5 nM	19.6 nM
C[C@@H]1CC(=O)NN=C1c1ccc(N2CCOCC2)cc1	30 nM	13.2 nM	20 nM
